In patent US20220349887A1, “Compositions and Methods for Multiplex Detection of Microorganisms Using Peptide-Tagged Recombinant Infectious Agents” (priority 2021, published 2022):

Tests used:
Experiment in all cases: Antibiotic susceptibility testing in human blood: cefoxitin enrichment, then MP115.NL/SAPJV1.NL phage infection, luminescence
Type in all cases: cell-based
[1] = tested on: Methicillin-resistant Staphylococcus aureus (MRSA) ATCC BAA-1720; conditions: 41 CFU/Well
Description: (§1) Methicillin-resistant Staphylococcus aureus (MRSA) strains (ATCC BAA-1720, CDC AR0480) and the methicillin-susceptible Staphylococcus aureus (MSSA) strain (ATCC 12600) were grown to log phase (OD600 ranged from 0.16 to 0.4) in tryptic soy broth (TSB). Cultures were diluted in TSB to obtain the desired burden, which was confirmed by plating on TSB agar for colony forming units (CFU). 50 μL of each dilution was added to test strips. When indicated, some strips contained bound anti-NANOLUC® antibody on medium-binding plates for capture. 85 μL, of either TSB or human blood diluted with TSB and sodium polyanethole sulfonate (SPS) was added. Human blood was collected from a single donor using sodium heparin as an anti-coagulant. Each well then received 15 μL of either TSB or 22 μg/mL cefoxitin (FOX) in TSB. The final concentration of each component in the well (150 μL volume) was 25% human blood, 0.0375% SPS, and 2.2 μg/mL FOX. Test strips were then sealed with cover film and incubated at 37° C. for two hours. After this selective enrichment, 20 μL of phage working stock was added to wells containing the TSB matrix. Phage working stock contained 8×10^7 plaque forming units per mL (pfu/mL) of MP115.NL and 6.9×10^8 pfu/mL of SAPJV1.NL. For wells containing blood matrix, 0.5 mg of recombinant Staphylococcal protein A (pro-356, Prospec, Ness-Ziona, Israel) per well was included within the 20 μL of phage working stock. Assay strips were once again sealed with cover film and incubated at 37° C. for three hours. Following infection, anti-NanoLuc capture and controls strips were washed three times with 300 μL PBS-T (10 mM sodium phosphate, 150 mM NaCl, 0.05% Tween 20, pH 7.4). Washes were conducted using an automatic plate washer (AccuWash, Thermo Fisher Scientific, Waltham, Mass., USA). 100 μL of NanoGlo buffer (Promega, Madison, Wisc., USA) containing 1 μL of NanoGlo substrate (Promega, Madison, Wisc., USA) was added to each well. “No wash+No Capture” strips were not washed and instead received 65 μL of a master mix containing 50 μL NanoGlo Buffer, 15 μL TSB, and 1 μL NanoGlo substrate. Following a 3 minute wait period, the signal output of each sample as relative light units (RLU) was determined using a GloMax Navigator (Promega, Madison, Wisc., USA). Signal over background (SB) was calculated by dividing the RLU from each sample from the RLU observed in the media control for that test matrix (Table 2).

[2] = tested on: Methicillin-resistant Staphylococcus aureus (MRSA) CDC AR0480; conditions: 110 CFU/Well
Description: as §1

[3] = tested on: methicillin-susceptible Staphylococcus aureus (MSSA) ATCC 12600; conditions: 130 CFU/Well
Description: as §1

[4] = 5% BSA Blocked Strips, Blood + FOX 2.2 μg/mL
[5] = 5% BSA Blocked Strips, TSB + FOX 2.2 μg/mL
[6] = Anti-NanoLuc Capture Strips, Blood + FOX 2.2 μg/mL
[7] = Anti-NanoLuc Capture Strips, TSB + FOX 2.2 μg/mL
[8] = No Capture + No Wash, Blood + FOX 2.2 μg/mL
[9] = No Capture + No Wash, TSB + FOX 2.2 μg/mL

CO[C@@]1(NC(=O)Cc2cccs2)C(=O)N2C(C(=O)O)=C(COC(N)=O)CS[C@@H]21 [FOX, cefoxitin]
RLU [1, 4]: 12 RLU
S/B [1, 4]: 2
RLU [1, 5]: 20 RLU
S/B [1, 5]: 3
RLU [1, 6]: 63960 RLU
S/B [1, 6]: 3998
RLU [1, 7]: 79180 RLU
S/B [1, 7]: 1028
RLU [1, 8]: 9035 RLU
S/B [1, 8]: 177
RLU [1, 9]: 342000 RLU
S/B [1, 9]: 447
RLU [2, 4]: 3 RLU
S/B [2, 4]: 0
RLU [2, 5]: 53 RLU
S/B [2, 5]: 7
RLU [2, 6]: 6927 RLU
S/B [2, 6]: 433
RLU [2, 7]: 96650 RLU
S/B [2, 7]: 1255
RLU [2, 8]: 432 RLU
S/B [2, 8]: 8
RLU [2, 9]: 127000 RLU
S/B [2, 9]: 166
RLU [3, 4]: 10 RLU
S/B [3, 4]: 1
RLU [3, 5]: 6 RLU
S/B [3, 5]: 1
RLU [3, 6]: 18 RLU
S/B [3, 6]: 1
RLU [3, 7]: 80 RLU
S/B [3, 7]: 1
RLU [3, 8]: 103 RLU
S/B [3, 8]: 2
RLU [3, 9]: 988 RLU
S/B [3, 9]: 1
